Usually IC50 stands for the concentration at which inhibition is half-maximal.

In series [1] the test system is New Zealand white rabbit model of atherosclerosis. The series can be described thus: New Zealand white rabbit model of atherosclerosis, combination with simvastatin. Type of series: in vivo. As for the experimental part:
In Vivo Studies Materials and Method: Rabbit Atherosclerosis Study Methods
The in-life portions of these studies were conducted at Covance Labs (Greenfield, Ind.). NZW rabbits were placed on a HF/HC diet manufactured by Research Diets Inc. (C30355) containing 0.25% cholesterol, 3% peanut oil, and 3% coconut oil for 3 weeks before randomization into treatment groups of 23 animals based on cholesterol levels and LTB4 production. Rabbits with cholesterol levels below 250 mg/dL at the start of treatment were removed from further analysis. The rabbits were fed 125 g of rabbit chow each day and both food consumption and body weights were measured throughout the study period. After 3 weeks the rabbits were either continued on this same diet for 10 weeks (control) or treated with Compound 200 in the same food formulation. Compound treated groups are group 1: compound 200 (3 mg/kg) and simvastatin (2.5 mg/kg); and group 2: compound 200 (15 mg/kg) and simvastatin (2.5 mg/kg). Another group of rabbits were treated with simvastatin alone at a dose of 2.5 mg/kg. During this time, plasma samples were taken for cholesterol, compound exposure, ALT and AST activity, and ex vivo LTB4 production at treatment week 0, 2, 4 and 10. Plasma samples for HDL and LDL levels were taken at week 2, 4 and 10. The animals were sacrificed after ten weeks of treatment, perfused with 10% formalin, and their descending aortas dissected out and placed in […] for transport to Boehringer Ingelheim Pharmaceuticals Inc. for processing. The aortas were pinned out onto the silicone surface inside a metal dish and stained with Sudan IV stain. Atherosclerosis development was determined by image analysis software after photographing the vessels. The percentage of the total vessel staining positive was determined
The mean value of each parameter was calculated for each different treatment group and compared to the control value. A one way ANOVA was used to compare treatment groups to the control group using a Dunnett's test for multiplicity of measures using Excell Stat software. As a pre-planned measurement the mean value of compound 200 treatment groups were individually compared to the simvastatin alone group by a Student's T test. Statistical significance was considered at the p<0.05 level.

Series [2] concerns apoE-/- mouse model of atherosclerosis. The series is described as follows: apoE-/- mouse model of atherosclerosis. It counts as in vivo.
In series [3] the test system is synthesis of LTB4 in human whole blood. The series can be described thus: LTB4 production inhibition assay in human whole blood (HWB). It counts as cell-based. To be noted: heparinized human whole blood, calcimycin 20 μM, 37° C. The procedure:
The compounds of the invention are additionally tested in a human whole blood (HWB) assay to determine their ability to inhibit the synthesis of LTB4 in a cellular system. Compounds are combined with heparinized human whole blood and incubated for 15 minutes at 37° C. Calcimycin (20 μM final, prepared in phosphate-buffered saline, pH 7.4) is then added and the mixture is incubated for another 30 minutes at 37° C. The samples are centrifuged for 5 min at low speed (1500×g) and the plasma layer is removed. Plasma LTB4 concentrations are then measured using an antibody-based homogenous time-resolved fluorescence method (CisBio, Bedford, Mass.). In general, the preferred potency range (IC50) of compounds in the HWB assay is between 10 nM to 10 μM, the more preferred potency range is 10 nM to 1 μM, and the most preferred potency range is 10 nM to 100 nM.

Series [4] concerns the target human LTA4 hydrolase (Homo sapiens (Human), UniProt P09960). The series is described as follows: LTA4H Enzyme assay (cleavage of Arg-AMC, fluorescence). It counts as biochemical. To be noted: LTA4H Enzyme 1 nM, Arg-AMC substrate 50 μM, room temperature 1 h. As for the experimental part:
The compounds of the invention are assessed for the ability to interact with human LTA4 hydrolase in an enzymatic assay that measures the ability of the enzyme to cleave the peptide bond of arginyl-aminomethylcoumarin (Arg-AMC). LTA4H Enzyme (1 nM final), Arg-AMC substrate (50 μM final), and compound are combined in a reaction buffer (50 mM Tris-HCl (pH 7.5), 100 mM KCl, 0.5% bovine serum albumin) at room temperature for 1 h. The formation of product is assessed by measuring the fluorescence of aminomethylcoumarin product (excitation wavelength 380 nm/emission wavelength 460 nm).

The mark [5] stands for this setting: in combination with simvastatin, compared to the simvastatin treated group.

Sequence of human LTA4 hydrolase (P09960 whole entry): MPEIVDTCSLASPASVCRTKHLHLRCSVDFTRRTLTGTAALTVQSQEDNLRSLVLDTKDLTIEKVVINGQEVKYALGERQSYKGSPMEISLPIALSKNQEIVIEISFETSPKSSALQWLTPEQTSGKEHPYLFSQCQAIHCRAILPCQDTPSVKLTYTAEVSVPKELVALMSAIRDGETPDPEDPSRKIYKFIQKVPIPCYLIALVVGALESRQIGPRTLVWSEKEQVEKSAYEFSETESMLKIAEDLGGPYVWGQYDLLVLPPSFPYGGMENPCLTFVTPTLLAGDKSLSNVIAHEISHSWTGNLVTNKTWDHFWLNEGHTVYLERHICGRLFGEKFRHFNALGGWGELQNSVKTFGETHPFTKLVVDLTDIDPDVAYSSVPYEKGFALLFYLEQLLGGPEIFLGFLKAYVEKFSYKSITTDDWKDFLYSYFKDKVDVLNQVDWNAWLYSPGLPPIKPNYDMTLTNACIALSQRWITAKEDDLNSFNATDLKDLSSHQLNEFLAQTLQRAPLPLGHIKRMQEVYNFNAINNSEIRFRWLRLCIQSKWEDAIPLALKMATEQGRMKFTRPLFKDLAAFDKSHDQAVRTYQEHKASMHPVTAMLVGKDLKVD

As for `O=C(O)C1CCN(Cc2ccc([C@H]3COc4ccccc4O3)cc2)CC1` [Example 200, (S)-1-[4-(2,3-dihydro-benzo[1,4]dioxin-2-yl)-benzyl]-piperidine-4-carboxylic acid], the “reduction in plaque area within the descending aorta in addition to the reduction due to statin treatment” value in series [1] (in combination with simvastatin 2.5 mg/kg vs simvastatin alone, 10 weeks chow dosing, p<0.05) came out at 35%. In series [1] (in combination with simvastatin compared to simvastatin treatment alone), the “plaque area in the descending aorta of rabbits (FIG. 1)” value was “further reduces plaque area”. For the same compound, in series [1] (setting [5]), the “effect on body weight” value is reported as “no significant effects”, the “effect on plasma cholesterol” value is “no significant effects” and the effect on triglycerides entry is recorded as “no significant effects”. The “plaque area in the descending aorta” value in series [2] is reported as “reduce plaque area”.
In the case of `COCC(=O)NC1CCN(Cc2ccc([C@H]3COc4cccnc4O3)cc2)CC1` [Example 252, N-{1-[(S)-4-(2,3-Dihydro-[1,4]dioxino[2,3-b]pyridin-3-yl)-benzyl]-piperidin-4-yl}-2-methoxy-acetamide], in series [3], the IC50 is 42 nM.
Compound `F[C@H]1CCN(Cc2ccc(C3COc4ccccc4O3)cc2)C1` (stereo partly drawn) [Example 115, (3S)-1-[4-(2,3-dihydro-1,4-benzodioxin-2-yl)benzyl]-3-fluoropyrrolidine] came in with an IC50 in series [4] of 3.03 nM.
`O=C1NCCC12CCN(Cc1ccc(C3COc4ccccc4O3)cc1)CC2` (stereo not shown) [Example 4, 8-[4-(2,3-dihydro-1,4-benzodioxin-2-yl)benzyl]-2,8-diazaspiro[4.5]decan-1-one] returned a half-inhibitory concentration (IC50) in series [4] of 0.74 nM.
Turning to `c1ccc2c(c1)OCC(c1ccc(CNC3CCCC3)cc1)O2` (stereo not shown) [Example 41, N-[4-(2,3-dihydro-1,4-benzodioxin-2-yl)benzyl]cyclopentanamine], half-maximal inhibition in series [4] (IC50) required 3.71 nM.
On to `FC1CCN(Cc2ccc(C3COc4ccccc4O3)cc2)CC1` (stereo not shown) [Example 5, 1-[4-(2,3-dihydro-1,4-benzodioxin-2-yl)benzyl]-4-fluoropiperidine], for which the IC50 in series [4] was 2.96 nM.
In the case of `CS(=O)(=O)NC1CCN(Cc2ccc(C3COc4ccccc4O3)cc2)CC1` (stereo not drawn) [Example 48, N-{l-[4-(2,3-dihydro-1,4-benzodioxin-2-yl)benzyl]piperidin-4-yl}methanesulfonamide], in series [4], the IC50 was determined as 0.16 nM.
The compound `CC(C)(C)NCc1ccc(C2COc3ccccc3O2)cc1` (stereo not shown) [Example 23, N-[4-(2,3-dihydro-1,4-benzodioxin-2-yl)benzyl]-2-methylpropan-2-amine] had an IC50 in series [4] of 5.2 nM.
Turning to `COC1CCN(Cc2ccc(C3COc4ccccc4O3)cc2)C1` (stereo not shown) [Example 47, 1-[4-(2,3-dihydro-1,4-benzodioxin-2-yl)benzyl]-3-methoxypyrrolidine], the midpoint of inhibition in series [4], the IC50, lay at 1.73 nM.
Still for that read-out and setting: under `OC1CCN(Cc2ccc([C@@H]3COc4ccccc4O3)cc2)CC1` [Example 193, (R)-1-[4-(2,3-Dihydro-benzo[1,4]dioxin-2-yl)-benzyl]-piperidin-4-ol] stands 5.35 nM; under `O=C(CNCc1ccc(C2COc3ccccc3O2)cc1)N1CCCC1` (stereo not shown) [Example 12, 2-{[4-(2,3-dihydro-1,4-benzodioxin-2-yl)benzyl]amino}-1-(pyrrolidin-1-yl)ethanone], 10.2 nM; under `c1ccc2c(c1)OCC(c1ccc(CN3CCCOCC3)cc1)O2` (stereo not shown) [Example 32, 4-[4-(2,3-dihydro-1,4-benzodioxin-2-yl)benzyl]-1,4-oxazepane], 1.8 nM.
`O=S1(=O)CCN(Cc2ccc(C3COc4ccccc4O3)cc2)CC1` (stereo not shown) [Example 7, 4-[4-(2,3-dihydro-1,4-benzodioxin-2-yl)benzyl]thiomorpholine 1,1-dioxide] came in with an IC50 in series [4] of 2.79 nM.
With `NC(=O)C1CCCN(Cc2ccc(C3COc4ccccc4O3)cc2)C1` (stereo not shown) [Example 114, 1-[4-(2,3-dihydro-1,4-benzodioxin-2-yl)benzyl]piperidine-3-carboxamide], inhibition in series [4] was half-maximal at 0.77 nM (IC50).
In series [4], `O[C@@H]1CCN(Cc2ccc(C3COc4ccccc4O3)cc2)C1` (stereo partly drawn) [Example 34, (3R)-1-[4-(2,3-dihydro-1,4-benzodioxin-2-yl)benzyl]pyrrolidin-3-ol] gave an IC50 of 1.89 nM.
In series [4], `COCCN(C)Cc1ccc(C2COc3ccccc3O2)cc1` (stereo not shown) [Example 33, N-[4-(2,3-dihydro-1,4-benzodioxin-2-yl)benzyl]-2-methoxy-N-methylethanamine] had an IC50 of 3.19 nM.
On to `O=C1NCCC12CCN(Cc1ccc([C@H]3COc4ccccc4O3)cc1)CC2` [Example 194, 8-[(S)-4-(2,3-Dihydro-benzo[1,4]dioxin-2-yl)-benzyl]-2,8-diaza-spiro[4.5]decan-1-one], for which, in series [4], the IC50 turned out to be 0.15 nM.

These data come from patent US9662339B2, “Benzodioxane inhibitors of leukotriene production for combination therapy” (Boehringer Ingelheim International GmbH, priority 2012, dated 2017).
